Measurements published in US10905736B2, “Ezetimibe-associated ApoA-I mimetic peptides showing enhanced synergism” (The Regents of the University of California, priority 2016, dated 2021).
“Also recorded” adds a separate entry of the source.

Columns and labels:
cholesterol-fed monkeys = settings: cited from earlier work
mice = settings: cited from earlier work
LDLR null mice [1] = test: Plasma lipid levels (total cholesterol, triglycerides, HDL-cholesterol) in LDLR null mice fed Western diet for two weeks; type: in vivo, mouse
Experimental: Res. Per. 3: e00154; Chattopadhyay et al. (2016) J. Lipid Res. 57: 832-847; PCT Pub. Nos: WO 2013/148214 (PCT/US2013/031037), WO 2015/175968 (PCT/US2015/031134)) (Tg6F), or the mice were fed WD with Ezetimibe added to give a daily dose of 10 mg/kg body weight/day (WD+Ezetimibe), or the mice were fed WD with Tg6F added at 0.06% by weight plus Ezetimibe (each added separately to the diet) to give a daily dose of Ezetimibe of 10 mg/kg body weight; the Tg6F and Ezetimibe were mixed into WD as described previously (Chattopadhyay et al. (2016) J. Lipid. Res. 57: 832-847) (Combined Formulation), or the mice were fed WD to which was added ezetimibe-associated transgenic 6F peptide (Ez-tg6F) at 0.06% Tg6F by weight containing sufficient Ezetimibe to give a daily dose of 10 mg/kg body weight/day that was prepared as described herein. Specifically, the ezetimibe-associated Tg6F peptide (Ez-Tg6F) was made by adding the ezetimibe directly to a solution of ethyl acetate 5% acetic acid that had been incubated overnight at room temperature with freeze-dried tomato powder obtained from transgenic tomatoes expressing the 6F peptide, and which had been removed to a separate vessel as described previously (see, e.g., Chattopadhyay et al. (2015) Pharma. Res. Per. 3: e00154; Chattopadhyay et al. (2016) J. Lipid. Res. 57: 832-847) prior to addition of the ezetimibe. After the addition of the ezetimibe, the solution was incubated at room temperature with gentle mixing for two hours prior to processing and addition of the resulting freeze-dried powder to WD as previously described (Chattopadhyay et al. (2016) J. Lipid. Res. 57: 832-847). After feeding the diets for two weeks, the mice were bled and total plasma cholesterol levels were determined as described (Id.). NS=Not Significant.
LDLR-null mice originally purchased from Jackson Laboratories on a C57BL/6J background were obtained from the breeding colony of the Department of Laboratory and Animal Medicine at the David Geffen School of Medicine at UCLA. The gender and age of the mice are stated in the legend to each figure. The mice were maintained on standard mouse chow (Ralston Purina) before being switched to a Western diet WD (Teklad, Harlan, catalog #TD88137).
In experiments in which Tg6F or EV or Ezetimibe were administered as single agents, the EV or Tg6F concentrate was added to WD at 0.06% by weight or Ezetimibe was added to WD to give a final dose of 10 mg/kg body weight/day. The EV or Tg6F concentrate or Ezetimibe was mixed into the diets as described (Chattopadhyay et al. (2015) Pharma. Res. Per. 3: e00154). […]

LDLR null mice [2] = test: Plasma lysophosphatidylcholine (LysoPC) levels in LDLR null mice fed Western diet for two weeks; type: in vivo, mouse; settings: female LDLR null mice age 4-7 months, WD two weeks, Tg6F 0.06% by weight, Ezetimibe 10 mg/kg/day
Experimental: After feeding the diets for two weeks the mice were bled and plasma lipid levels, plasma levels of lysophosphatidylcholine (LysoPC), and plasma levels of Serum Amyloid A (SAA) were determined as described in Example 3 Methods. Panel A) Plasma total cholesterol levels. Panel B) The decrease in plasma cholesterol compared to WD for each treatment. Panel C) Plasma triglyceride levels. Panel D) The decrease in plasma triglycerides compared to WD for each treatment. Panel E) Plasma HDL-Cholesterol levels. Panel F) The Increase in plasma HDL-Cholesterol compared to WD for each treatment. Panel G) Plasma LysoPC 18:0 levels. Panel H) The decrease in plasma LysoPC 18:0 levels compared to WD for each treatment. Panel I) Plasma LysoPC 18:1 levels. Panel J) The decrease in plasma LysoPC 18:1 levels compared to WD for each treatment. Panel K) Plasma LysoPC 20:4 levels. Panel L) The decrease in plasma LysoPC 20:4 levels compared to WD for each treatment. Panel M) Plasma SAA levels. Panel N) The decrease in plasma SAA levels compared to WD for each treatment. The data shown are Mean±SEM. NS=Not significant.
In experiments in which Tg6F or EV or Ezetimibe were administered as single agents, the EV or Tg6F concentrate was added to WD at 0.06% by weight or Ezetimibe was added to WD to give a final dose of 10 mg/kg body weight/day. The EV or Tg6F concentrate or Ezetimibe was mixed into the diets as described (Chattopadhyay et al. (2015) Pharma. Res. Per. 3: e00154). In experiments in which the EV or Tg6F concentrates and Ezetimibe were both added to WD, each was added separately to WD at the same dose as used for the single agents, and each was mixed into the diet as described (Id.). […]
Plasma lipids, and serum amyloid A (SAA) levels were determined and LC-MS/MS was performed as described (Navab et al. (2012) J. Lipid Res. 53: 437-446; Chattopadhyay et al. (2016) J. Lipid Res. 57: 832-847; Chattopadhyay et al. (2015) Pharma. Res. Per. 3: e00154). […]

## O=C1[C@H](CC[C@H](O)c2ccc(F)cc2)[C@@H](c2ccc(O)cc2)N1c1ccc(F)cc1 [Ezetimibe, (3R,4S)-1-(4-fluorophenyl)-3-[(3S)-3-(4-fluorophenyl)-3-hydroxypropyl]-4-(4-hydroxyphenyl)azetidin-2-one]
cholesterol-fed monkeys
  ED50 value (median effective dose) for inhibiting the rise in plasma cholesterol levels: 0.5 µg/kg/day
mice
  ED50 value: 700 µg/kg/day
LDLR null mice [1]; female LDLR null mice age 3-6 months, n=20-28 per group, WD two weeks, Tg6F 0.06% by weight, Ezetimibe 10 mg/kg/day, FIG. 15
  dyslipidemia (plasma total cholesterol, triglycerides, HDL-Cholesterol): significantly ameliorated dyslipidemia
LDLR null mice [1]; statement over the experiments of Example 3 (single agents five out of five, Combined Formulation five out of five, Novel Method three out three experiments)
  plasma triglyceride levels: equally effective; also recorded: improved plasma total cholesterol and triglyceride levels
LDLR null mice [1]; statement over the experiments of Example 3 (single agents five out of five, Combined Formulation four out of five, Novel Method three out three experiments)
  plasma total cholesterol levels: equally effective; also recorded: improved plasma total cholesterol and triglyceride levels
LDLR null mice [1]; statement over the experiments of Example 3 (single agents four out of four, Combined Formulation four out of four, Novel Method two out of two experiments)
  plasma HDL-cholesterol levels: equally effective; also recorded: significantly increased the levels
LDLR null mice [2]; FIG. 16 G-H
  plasma LysoPC 18:0 levels: failed to significantly alter plasma levels of LysoPC 18:0
LDLR null mice [2]; FIG. 16 I-J
  plasma LysoPC 18:1 levels: significantly decreased plasma levels of LysoPC 18:1
LDLR null mice [2]; FIG. 16 K-L
  plasma LysoPC 20:4 levels: significantly reduced plasma levels of LysoPC 20:4
